Measurements: patent US12691068B2, “Modular lipid compounds and two- to three-component lipid nanoparticle compositions” (SunVax mRNA Therapeutics Inc., priority 2022, dated 2026)

System: HEK293T cells
Assay: In vitro transfection efficiency of LNPs encapsulating SamRNA-GFP in HEK293T cells (flow cytometry)
Assay type: cell-based
Settings: modular lipid/DOPE/DMG-PEG2000 40/10/2 mole ratio, 100 ng RNA, 24 hours
Method: The modular lipids of the disclosure were mixed with at least one of ionizable lipid, DOPE, cholesterol (Chol), and/or DMG-PEG2000 in ethanol at a predetermined molar ratio. Ionizable lipid: SamRNA molar ratio of 6:1 was used to prepare an organic phase. SamRNA-LUC or SamRNA-GFP was diluted in 50 mM citrate buffer (pH 4.5, Fisher) or PBS (pH 7.4, Fisher) to prepare an aqueous phase. The SamRNA was stored at −80° C. and was thawed on ice prior to use. The ethanol and aqueous phases were mixed at a 1:3 ratio by pipette. The resultant LNPs were purified by ultrafiltration (100,000 cut-off, MilliporeSigma™ Amicon™ Ultra-15 Centrifugal Filter Units) at 4° C. prior to injection.
LNPs containing SamRNA-GFP or SamRNA-LUC were added into 96-well plate at 100 ng/well pre-seeded with HEK293, C2C12 or MC38 cells. After a 24 hour incubation at 37° C. and 5% CO2, the SamRNA-LUC transfection efficiency was measured by plate reader (Perkin Elmer Envision 2104) and GFP SamRNA transfection efficiency was measured by flow cytometry (BD FACSymphony™ A5 SE Cell Analyzer).
The transfection efficacy of LNPs formulated using modular lipids P161F5, P161F6 or P161F10; DOPE and DMG-PEG2000 (modular lipid/DOPE/DMG-PEG2000, 40/10/2 mole ratio) encapsulating LNP-SamRNA-GFP were studied using HEK293T cells in 96-well plates. […]

| SMILES | transfection efficiencies compared with four-component LNPs containing MC3 and SM102 |
| --- | --- |
| CCCCCCCCCCCCC(CCCCCCCCCC)CN(C(=O)CCC(C)C1CCC2C3CC(O)C4CC(O)CCC4(C)C3CCC12C)C(C(=O)NC12CC3CC(CC(C3)C1)C2)C1CCN(CC)CC1 (centres unmarked) [P161F6, N-(2-(((1s,3s)-adamantan-1-yl)amino)-1-(1-ethylpiperidin-4-yl)-2-oxoethyl)-N-(2-decyltetradecyl)-4-(3,6-dihydroxy-10,13-dimethylhexadecahydro-1H-cyclopenta[a]phenanthren-17-yl) pentanamide] | comparable or higher |
| CCCCCCCCCCC(CCCCCCCC)CN(C(=O)CCC(C)C1CCC2C3CC(O)C4CC(O)CCC4(C)C3CCC12C)C(CC1CCN(C)CC1)C(=O)NC12CC3CC(CC(C3)C1)C2 (centres unmarked) [P161F10, N-(1-(((1s,3s)-adamantan-1-yl)amino)-3-(1-methylpiperidin-4-yl)-1-oxopropan-2-yl)-4-(3,6-dihydroxy-10,13-dimethylhexadecahydro-1H-cyclopenta[a]phenanthren-17-yl)-N-(2-octyldodecyl)pentanamide] | comparable or higher |
